On the set-up of the series: species or system Yorkshire cross swine. The settings on record: in vivo. The procedure:
PuraMatrix™, a peptide solution comprising Ac-RADARADARADARADA-NH2 (Ac-Arg-Ala-Asp-Ala-Arg-Ala-Asp-Ala-Arg-Ala-Asp-Ala-Arg-Ala-Asp-Ala-NH2) (SEQ ID NO: 58) in water was used as an embolic agent in a porcine model through angiography, gross necropsy assessment, and histopathology assessment. One female Yorkshire cross swine was tested. The weight of the swine at the time of testing was 46.5 kg. Feed and water were provided per standard operating procedures. There were no contaminants in the food or water that were expected to interfere with the conduct or results of the study. The swine was acquired from a test facility approved animal supplier. The Swine participated in an incoming physical exam, and after a period of acclimation was again examined. The swine was fasted a minimum of 12 hours prior to the procedures. The animals were sedated and anesthetized by an intramuscular or subcutaneous injection of Telazol (2-10 mg/kg) and Xylazine (0.5=5.0 mg/kg). Propofol (to effect) was given to aid in sedation. An endotracheal tube was used to ensure proper ventilation and the animals were maintained under general anesthesia with inhalant isofluorante (0.1 to 5.0%). Heparin (50-300 units/kg, IV) was administered throughout the procedure.
On the day of testing, the swine was 2 months, 25 days old. The swine was sedated and prepared for surgery. […]

For the substance Ac-RADARADARADARADA-NH2 [PuraMatrix™], the “adverse events throughout the testing” value is on record as “no adverse events”.

For the origin of these results see patent US12629446B2, “Vascular embolic system” (3-D Matrix, Ltd., priority 2012, dated 2026).
